The test concerns 425362-245-T-J1 tumor spheroids, viability % test/control. Briefly: Anticancer human tumor 425362-245-T-J1 patient-derived melanoma cell line growth inhibition. Particulars: spheroids with HUVEC and MSC; for viability, T/C: stronger effect = lower value. Put shortly:
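Complex tumor spheroids combined malignant cells with endothelial cells and mesenchymal stem cells. DNA-damaging drugs and DNA repair inhibitors were tested alone and in combination, at half-log dilutions down from clinical Cmax (top 10 microM if Cmax unknown), 0.25% DMSO final.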

Where [1] appears, read: curve of first compound, second compound 0.003 µM.
The mark [2] stands for this setting: curve of first compound, second compound 0.00949 µM.
Setting [3] is: curve of first compound, second compound 0.03 µM.
The mark [4] stands for this setting: curve of first compound, second compound 0.0949 µM.
The mark [5] stands for this setting: curve of first compound, second compound 0.3 µM.

Molecules are shown by their SMILES. “And” between values parts separate entries of the source, which are not always exact repeats. Equal entries are not always repeated.
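Note: spheroids exposed to agents for 7 days.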
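Throughout, for viability, T/C: 100% = DMSO vehicle control viability.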

In general, IC50 refers to the point on the concentration scale where inhibition reaches its midpoint. For orientation: viability, T/C means the ratio of treated to control. As for `O=C(c1cc(Cc2n[nH]c(=O)c3ccccc23)ccc1F)N1CCN(C(=O)C2CC2)CC1` + CC[C@@]1(O)C(=O)OCc2c1cc1n(c2=O)Cc2cc3c(CN(C)C)c(O)ccc3nc2-1, the IC50 by setting is: under setting [1], 3170 nM; under setting [2], 650 nM; under setting [3], less than 94.9 nM; under setting [4], less than 94.9 nM; under setting [5], less than 94.9 nM. Moreover, the viability, T/C (second compound 0.003 µM, first compound 0.0949 µM) was 87%; the viability, T/C (second compound 0.003 µM, first compound 0.3 µM) is 84.8%; the viability, T/C (second compound 0.003 µM, first compound 0.949 µM) is 80.6%; the viability, T/C (second compound 0.003 µM, first compound 3 µM) was 52.4%; the viability, T/C (second compound 0.003 µM, first compound 9.49 µM) was 7.82%; the viability, T/C (second compound 0.003 µM, first compound 30 µM) was 9.12%. The viability, T/C is, setting by setting: (second compound 0.00949 µM, first compound 0.0949 µM) 71.3%; (second compound 0.00949 µM, first compound 0.3 µM) 55%; (second compound 0.00949 µM, first compound 0.949 µM) 46.6%; (second compound 0.00949 µM, first compound 3 µM) 34.8%; (second compound 0.00949 µM, first compound 9.49 µM) 9.52%; (second compound 0.00949 µM, first compound 30 µM) 8.51%. In addition, the viability, T/C by setting is: (second compound 0.03 µM, first compound 0.0949 µM) 7.79%; (second compound 0.03 µM, first compound 0.3 µM) 10.1%; (second compound 0.03 µM, first compound 0.949 µM) 8.82%; (second compound 0.03 µM, first compound 3 µM) 6.98%; (second compound 0.03 µM, first compound 9.49 µM) 6.48%; (second compound 0.03 µM, first compound 30 µM) 5.12%. The viability, T/C by setting is: (second compound 0.0949 µM, first compound 0.0949 µM) 4.29%; (second compound 0.0949 µM, first compound 0.3 µM) 4.4%; (second compound 0.0949 µM, first compound 0.949 µM) 5.46%; (second compound 0.0949 µM, first compound 3 µM) 4.39%; (second compound 0.0949 µM, first compound 9.49 µM) 3.36%; (second compound 0.0949 µM, first compound 30 µM) 3.93%. Moreover, the viability, T/C (second compound 0.3 µM, first compound 0.0949 µM) was 2.55%; the viability, T/C (second compound 0.3 µM, first compound 0.3 µM) was 1.67%; the viability, T/C (second compound 0.3 µM, first compound 0.949 µM) was 1.76%; the viability, T/C (second compound 0.3 µM, first compound 3 µM) was 1.64%; the viability, T/C (second compound 0.3 µM, first compound 9.49 µM) was 1.57%; the viability, T/C (second compound 0.3 µM, first compound 30 µM) is 1.68%.
Regarding `COc1ccc([C@@H](O)c2cc(-c3ncnc4cc(N5CCOCC5)ccc34)c(F)cc2Cl)nn1` + CC[C@@]1(O)C(=O)OCc2c1cc1n(c2=O)Cc2cc3c(CN(C)C)c(O)ccc3nc2-1, the IC50 is, setting by setting: under setting [1], 1690 nM; under setting [2], 1110 nM; under setting [3], less than 31.6 nM; under setting [4], less than 31.6 nM; under setting [5], less than 31.6 nM. For the same molecule, the viability, T/C was 103% (second compound 0.003 µM, first compound 0.0316 µM); 103% (second compound 0.003 µM, first compound 0.1 µM); 72.1% (second compound 0.003 µM, first compound 0.316 µM); 60.2% (second compound 0.003 µM, first compound 1 µM); 40.6% (second compound 0.003 µM, first compound 3.16 µM); 17% (second compound 0.003 µM, first compound 10 µM). Further, the viability, T/C was 89.7% (second compound 0.00949 µM, first compound 0.0316 µM); 78.7% (second compound 0.00949 µM, first compound 0.1 µM); 72.4% (second compound 0.00949 µM, first compound 0.316 µM); 47.9% (second compound 0.00949 µM, first compound 1 µM); 35.1% (second compound 0.00949 µM, first compound 3.16 µM); 14.9% (second compound 0.00949 µM, first compound 10 µM). The viability, T/C runs as follows: (second compound 0.03 µM, first compound 0.0316 µM) 45.5%; (second compound 0.03 µM, first compound 0.1 µM) 45.6%; (second compound 0.03 µM, first compound 0.316 µM) 37.8%; (second compound 0.03 µM, first compound 1 µM) 24.5%; (second compound 0.03 µM, first compound 3.16 µM) 15.1%; (second compound 0.03 µM, first compound 10 µM) 11.2%. Further, the viability, T/C (second compound 0.0949 µM, first compound 0.0316 µM) is 8.69%; the viability, T/C (second compound 0.0949 µM, first compound 0.1 µM) was 6.08%; the viability, T/C (second compound 0.0949 µM, first compound 0.316 µM) is 5.64%; the viability, T/C (second compound 0.0949 µM, first compound 1 µM) was 5.51%; the viability, T/C (second compound 0.0949 µM, first compound 3.16 µM) was 3.85%; the viability, T/C (second compound 0.0949 µM, first compound 10 µM) is 4.39%. Further, the viability, T/C is 1.88% (second compound 0.3 µM, first compound 0.0316 µM); 1.38% (second compound 0.3 µM, first compound 0.1 µM); 1.37% (second compound 0.3 µM, first compound 0.316 µM); 1.12% (second compound 0.3 µM, first compound 1 µM); 0.65% (second compound 0.3 µM, first compound 3.16 µM); 0.57% (second compound 0.3 µM, first compound 10 µM).
In the case of `CNCc1ccc(-c2cc(-c3nc(-c4ccc(S(=O)(=O)C(C)C)cc4)cnc3N)on2)cc1`, the viability, T/C is 93.8% and 103% and 111% (compound 0.00949 µM); 103% and 83.1% and 105% (compound 0.03 µM); 44.3% and 46.4% and 79.6% (compound 0.0949 µM); 8.53% and 6.26% and 5.89% (compound 0.3 µM); 3.67% and 5.06% and 2.41% (compound 0.949 µM); 0.18% and 0.4% and 0.23% (compound 3 µM). Further, the IC50 (curve of compound) is 84 nM and 79.5 nM and 151 nM.
For `COc1cc2c(cc1O)CCNC21CSC2c3c(OC(C)=O)c(C)c4c(c3C(COC1=O)N1C(O)C3Cc5cc(C)c(OC)c(O)c5C(C21)N3C)OCO4` (stereo not drawn), the viability, T/C reads like this: (compound 30 pM) 98% [middle of 10 runs]; (compound 94.9 pM) 95.6% [middle of 10 runs]; (compound 0.0003 µM) 40.8% [middle of 10 runs]; (compound 0.000949 µM) 0.32% [middle of 9 runs]; (compound 0.003 µM) 0.21% [middle of 9 runs]. Moreover, for the setting “compound alone, run of 10/25/2019”, the IC50 was 0.243 nM [middle of 9 runs].

For the origin of these results see PubChem BioAssay AID1845198 (Molecular Pharmacology Branch, DTP, NCI, 2023).
